The subject of one data set is CCK-A receptors. The settings on record: in words; cited from earlier work.
The subject of another data set is CCK-B receptors. To be noted: in words; cited from earlier work.
The conditions of data set [1]: rat, brain synaptosomal fraction; cited from earlier work.
In the next data set the target is T1, CCK receptor (pancreas) (Rattus norvegicus, UniProt P30551).
T1 construct: The whole pancreas was dissected free of fat tissue and was homogenized; from tissue; host or cells: rat whole pancreas, membrane preparation
T1 sequence (P30551 1-444): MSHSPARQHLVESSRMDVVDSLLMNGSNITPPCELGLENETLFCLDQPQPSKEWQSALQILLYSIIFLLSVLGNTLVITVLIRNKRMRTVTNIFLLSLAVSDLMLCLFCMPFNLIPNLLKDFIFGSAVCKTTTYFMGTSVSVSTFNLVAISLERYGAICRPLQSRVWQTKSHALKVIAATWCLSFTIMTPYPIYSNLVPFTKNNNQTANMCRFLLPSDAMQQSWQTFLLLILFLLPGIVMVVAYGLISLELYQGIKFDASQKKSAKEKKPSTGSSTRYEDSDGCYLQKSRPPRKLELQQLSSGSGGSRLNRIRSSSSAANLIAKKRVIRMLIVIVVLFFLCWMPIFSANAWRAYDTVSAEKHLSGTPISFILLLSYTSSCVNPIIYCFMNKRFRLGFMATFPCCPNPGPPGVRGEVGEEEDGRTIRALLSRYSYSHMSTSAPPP
The data set is described as follows: CCK receptor binding (Pancreas), inhibition of 125I-CCK binding. Details: species or system rat (male Sprague-Dawley). To be noted: 125I-CCK-33, 37° C., 30 minutes, read-out: IC^50 ^125 I-CCK Pancreas. The procedure: 1. CCK Receptor Binding (Pancreas)
CCK-33 was radiolabeled with ^125 I-Bolton Hunter reagent (2000 Ci/mmole) as described by Sankara et al. (J. Biol. Chem. 254: 9349-9351, 1979). Receptor binding was performed according to Innis and Snyder (Proc. Natl. Acad. Sci. 77: 6917-6921, 1980) with the minor modification of adding the additional protease inhibitors, phenyl-methane sulfonyl fluoride and o-phenanthroline. The latter two compounds have no effect on the ^125 I-CCK receptor binding assay.
Male Sprague-Dawley rats (200-350g) were sacrificed by decapitation. The whole pancreas was dissected free of fat tissue and was homogenized in 20 volumes of ice-cold 50 mM, Tris HCl (pH 7.7 at 25° C.) with a Brinkmann Polytron PT 10. The homogenates were centrifuged at 48,000 g for 10 min. Pellets were resuspended in Tris Buffer, centrifuged as above and resuspended in 200 volumes of binding assay buffer (50 mM Tris HCl, pH 7.7 at 25° C., 5 mM dithiothrietol, 0.1 mM bacitracin, 1.2 mM phenylmethane sulfonyl fluoride and 0.5 mM o-phenanthroline). […] All assays were run in duplicate or triplicate. The reaction mixtures were incubated at 37° C. for 30 minutes and centrifuged in a Beckman Microfuge (4 minutes) immediately after adding 1 ml of ice-cold incubation buffer. The supernatant was aspirated and discarded, pellets were counted with a Beckman gamma 5000. For Scatchard analysis (Ann. N.Y. Acad. Sci. 51: 660, 1949), ^125 I-CCK-33 was progressively diluted with increasing concentrations of CCK-33.

In another data set the target is T2, CCK receptor (brain) (Cavia porcellus, UniProt H0VZC5).
T2 construct: Cerebral cortex was dissected and used as a receptor source; from tissue; host or cells: guinea pig cerebral cortex, membrane preparation
T2 sequence (H0VZC5 entry or part of it): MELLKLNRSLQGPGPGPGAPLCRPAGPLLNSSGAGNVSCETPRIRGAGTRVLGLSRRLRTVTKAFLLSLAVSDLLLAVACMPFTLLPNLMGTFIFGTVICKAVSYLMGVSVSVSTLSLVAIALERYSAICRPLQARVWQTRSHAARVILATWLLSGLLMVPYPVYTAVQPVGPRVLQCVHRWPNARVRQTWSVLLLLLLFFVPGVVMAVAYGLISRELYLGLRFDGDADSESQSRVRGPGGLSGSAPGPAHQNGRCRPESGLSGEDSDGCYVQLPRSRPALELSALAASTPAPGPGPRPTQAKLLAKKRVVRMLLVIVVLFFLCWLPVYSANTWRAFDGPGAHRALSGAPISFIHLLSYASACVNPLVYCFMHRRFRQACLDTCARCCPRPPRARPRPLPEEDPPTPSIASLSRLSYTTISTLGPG
The data set is described as follows: CCK receptor binding (Brain), inhibition of 125I-CCK binding. Further details: species or system guinea pig (male Hartley). To be noted: guinea pig cerebral cortex, 125I-CCK-33, 25° C., 2 hours; read-out: IC^50 ^125 I-CCK Brain. The procedure: 2. CCK Receptor Binding (Brain)
CCK-33 was radiolabeled and the binding was performed according to the description for the pancreas method with modifications according to Saito et al., J. Neurochem. 37, 483-490, 1981.
Male Hartley guinea pigs (300-500 g) were sacrificed by decapitation and the brains were removed and placed in ice-cold 50 mM, Tris HCl plus 7.58 g/l Trizma-7.4 (pH 7.4 at 25° C.). Cerebral cortex was dissected and used as a receptor source. Each gram of fresh guinea pig brain tissue was homogenized in 10 ml of Tris Trizma buffer with a Brinkman polytron PT-10. The homogenates were centrifuged at 42,000 g for 15 min. […] All assays were run in duplicate or triplicate. The reaction mixtures were incubated at 25° C. for 2 hours and centrifuged in a Beckman Microfuge (4 minutes) immediately after adding 1 ml of ice-cold incubation buffer. The supernatant was aspirated and discarded, pellets were counted with a Beckman gamma 5000.

The target in the next data set is T3, gastrin receptor (Cavia porcellus, UniProt H0VZC5).
T3 construct: Guinea pig gastric mucosal glands were prepared by the procedure of Berglingh and Obrink; from tissue; host or cells: guinea pig gastric mucosal glands
T3 sequence (H0VZC5 entry or part of it): as above
The data set is described as follows: Gastrin receptor binding in guinea pig gastric glands. Details: species or system guinea pig (male Hartley). To be noted: read-out: IC^50 Gastrin. How it is done:
Gastrin antagonist activity of compounds of Formula I is determined using the following assay: […]
Gastrin Receptor Binding in Guinea Pig Gastric Glands Preparation of guinea pig gastric mucosal glands
Guinea pig gastric mucosal glands were prepared by the procedure of Berglingh and Obrink Acta Physiol. Scand. 96: 150 (1976) with a slight modification according to Praissman et al. C. J. Receptor Res. 3: (1983). Gastric mucosa from guinea pigs (300-500 g body weight, male Hartley) were washed thoroughly and minced with fine scissors in standard buffer consisting of the following: 130 mM NaCl, 12 mM NaHCO3, 3 mM NaH2 PO4, 3 mM K2 HPO4, 2 mM MgSO4, 1 mM CaCl2, 5 mM glucose and 4 mM L-glutamine, 25 mM HEPES at pH 7.4. The minced tissues were washed and then incubated in a 37° C. shaker bath for 40 minutes with the buffer containing 0.1% collagenase and 0.1% BSA and bubbled with 95% O2 and 5% CO2. The tissues were passed twice through a 5 ml glass syringe to liberate the gastric glands, and then filtered through 200 mesh nylon. The filtered glands were centrifuged at 270 g for 5 minutes and washed twice by resuspension and centrifugation.

Another data set deals with stomach gastrin receptor. To be noted: in words; cited from earlier work.

For “gastrin: neuropeptide structurally related to cholecystokinin”, in the data set on CCK-A receptors, the “affinity for CCK-A receptors” value is recorded as “lower affinity”.
On to `CSCC[C@H](NC(=O)[C@H](Cc1ccc(OS(=O)(=O)O)cc1)NC(=O)[C@@H](N)CC(=O)O)C(=O)NCC(=O)N[C@@H](Cc1c[nH]c2ccccc12)C(=O)N[C@@H](CCSC)C(=O)N[C@@H](CC(=O)O)C(=O)N[C@@H](Cc1ccccc1)C(N)=O` [CCK-8s, H-Asp-Tyr(SO3 H)-Met-Gly-Trp-Met-Asp-Phe-NH2], for which, in the data set with CCK-B receptors, the “affinity for CCK-B receptors” value is given as “high affinity”. Besides, in the data set on CCK-A receptors, the “affinity for CCK-A receptors” value is “high affinity”. Also, in data set [1], the half-life result was “less than 1 hour”.
Consider `CSC1=Nc2ccccc2C(c2ccccc2F)=N[C@@H]1Cc1c[nH]c2ccccc12` [Example 2, 2-Methylthio-3(R)-(3'-indolyl)methyl-5-(2'-fluorophenyl)2H-1,4-benzodiazepine], for which the IC50 on CCK receptor (pancreas) is 17000 nM.
As for `CSCC[C@H](NC(=O)[C@H](Cc1ccc(O)cc1)NC(=O)[C@@H](N)CC(=O)O)C(=O)NCC(=O)N[C@@H](Cc1c[nH]c2ccccc12)C(=O)N[C@@H](CCSC)C(=O)N[C@@H](CC(=O)O)C(=O)N[C@@H](Cc1ccccc1)C(N)=O` [CCK-8d], the “affinity for CCK-A receptors” value in the data set with CCK-A receptors is “lower affinity”.
As for `CSCC[C@H](NC(=O)[C@H](Cc1c[nH]c2ccccc12)NC(=O)CCNC(=O)OC(C)(C)C)C(=O)N[C@@H](CC(=O)O)C(=O)N[C@@H](Cc1ccccc1)C(N)=O` [pentagastrin], in the data set with CCK-B receptors, the “affinity for CCK-B receptors” value was “high affinity”.
Consider `Cc1cccc(NC(=O)NC2N=C(c3ccccc3)c3ccccc3N=C2NCC(=O)N2CCN(C)CC2)c1` (stereo not shown) [Example 12, 1-Methyl-4-[[(3-((((3-methylphenyl)amino)carbonyl)amino)-5-phenyl-3H-1,4-benzodiazepin-2-yl)amino]acetyl]-piperazine], for which the IC50 at CCK receptor (pancreas) was 1000 nM; at CCK receptor (brain), 124 nM; on gastrin receptor, 180 nM.
Consider `CSCC[C@H](NC(=O)[C@@H](N)Cc1c[nH]c2ccccc12)C(=O)N[C@@H](CC(=O)O)C(=O)N[C@@H](Cc1ccccc1)C(N)=O` [CCK-4], for which the “affinity for CCK-B receptors” value with CCK-B receptors was “high affinity”. Besides, the “potency at stomach gastrin receptor” value with stomach gastrin receptor is “minimum fully potent CCK sequence”. In addition, in the data set with CCK-A receptors, the “affinity for CCK-A receptors” value was “lower affinity”.
Regarding `Cc1cccc(NC(=O)NC2N=C(c3ccccc3)c3ccccc3N=C2NCCCN2CCCC2=O)c1` (stereo not shown) [Example 14, N-[3-Methylphenyl]-N'-[2-((3-(2-oxo)pyrrolidinyl)propyl)amino-5-phenyl-3H-1,4-benzodiazepin-3-yl]-urea], the values for the IC50 on CCK receptor (pancreas), on CCK receptor (brain) and at gastrin receptor were 590 nM, 15 nM and 13 nM, respectively.
As for `Cc1cccc(NC(=O)NC2N=C(c3ccccc3)c3ccccc3N=C2NCC(=O)N2CCCC2)c1` (stereo not shown) [Example 11, 1-[[(3-((3-Methylphenylaminocarbonyl)amino)-5-phenyl-3H-1,4-benzodiazepin-2-yl)amino]acetyl]-pyrrolidine], the figures for the IC50 on CCK receptor (pancreas), at CCK receptor (brain) and at gastrin receptor were 1100 nM, 5.9 nM and 20 nM, respectively.
`CCN(CC)CCCNC1=Nc2ccccc2C(c2ccccc2)=NC1NC(=O)Nc1cccc(C)c1` (stereo not shown) [Example 13, N-[2-[((3-Diethylamino)propyl)amino]-5-phenyl-3H-1,4-benzodiazepin-3-yl]-N'-[3-methylphenyl]-urea]: the values for the IC50 at CCK receptor (pancreas), on CCK receptor (brain) and at gastrin receptor were 14000 nM, 78 nM and 120 nM, respectively.

The values above are taken from patent US5206237A, “Benzodiazepine analogs” (Merck & Co., Inc., priority 1991, dated 1993).
